Reference: ChEMBL document CHEMBL5120882, “Medicinal Chemistry Perspective on Targeting Mono-ADP-Ribosylating PARPs with Small Molecules” (J Med Chem, 2022)
pIC50: −log10 of the molar value.

Assays:
[1] = target: T1, Protein mono-ADP-ribosyltransferase PARP3 (Homo sapiens, UniProt Q9Y6F1); assay: Inhibition of recombinant human PARP3 using IRE-1 as substrate incubated for 1 hr by chemiluminescence assay
T1 sequence (Q9Y6F1 whole entry): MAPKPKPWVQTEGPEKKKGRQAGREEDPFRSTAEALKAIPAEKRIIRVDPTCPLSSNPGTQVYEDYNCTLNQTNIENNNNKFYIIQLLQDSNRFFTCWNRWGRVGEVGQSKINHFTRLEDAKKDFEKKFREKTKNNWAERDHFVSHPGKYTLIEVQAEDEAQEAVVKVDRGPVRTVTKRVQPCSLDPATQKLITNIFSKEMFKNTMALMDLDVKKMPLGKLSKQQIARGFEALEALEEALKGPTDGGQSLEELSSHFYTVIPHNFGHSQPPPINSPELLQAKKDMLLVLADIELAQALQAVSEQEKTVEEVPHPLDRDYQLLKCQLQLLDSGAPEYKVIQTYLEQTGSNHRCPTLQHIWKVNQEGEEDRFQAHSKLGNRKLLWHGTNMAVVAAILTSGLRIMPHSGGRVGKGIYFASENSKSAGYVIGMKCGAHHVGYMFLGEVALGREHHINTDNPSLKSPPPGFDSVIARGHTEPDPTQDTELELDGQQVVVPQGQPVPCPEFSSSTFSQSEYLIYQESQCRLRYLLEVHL

[2] = target: T2, Protein mono-ADP-ribosyltransferase PARP16 (Homo sapiens, UniProt Q8N5Y8); assay: Inhibition of PARP16 (unknown origin) using IRE-1 as substrate incubated for 1 hr by chemiluminescence assay
T2 sequence (Q8N5Y8 whole entry): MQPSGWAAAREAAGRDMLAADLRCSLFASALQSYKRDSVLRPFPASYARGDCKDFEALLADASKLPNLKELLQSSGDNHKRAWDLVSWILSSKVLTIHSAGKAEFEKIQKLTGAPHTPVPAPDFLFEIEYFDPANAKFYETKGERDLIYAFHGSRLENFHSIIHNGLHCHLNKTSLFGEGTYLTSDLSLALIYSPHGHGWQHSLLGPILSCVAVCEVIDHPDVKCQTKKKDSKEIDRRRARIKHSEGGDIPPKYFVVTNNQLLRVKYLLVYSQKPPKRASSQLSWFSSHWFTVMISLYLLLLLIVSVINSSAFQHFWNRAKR

NCI-H1373 = assay: Antitumor activity against human NCI-H1373 cells in xenograft model assessed as tumor growth inhibition relative to control; format: functional; design: scale not given: the % may be the effect or the level left
[3] = target: Protein mono-ADP-ribosyltransferase PARP9 (Homo sapiens, UniProt Q8IXQ6); assay: Inhibition of PARP9 (unknown origin)

SMILES	pIC50 [1]	pIC50 [2]	Activity (NCI-H1373) [%]	pIC50 [3]
Nc1ncc2c(n1)CNC(=O)c1[nH]c(Br)c(Br)c1-2	5.47	6.37		
C[C@@H](COCCC(=O)N1CCN(c2ncc(C(F)(F)F)cn2)CC1)Nc1cn[nH]c(=O)c1C(F)(F)F [ATAMPARIB]			49	< 4.30
